Assay results from ChEMBL document CHEMBL1157761, “Cytotoxic nor-chamigrane and chamigrane endoperoxides from a basidiomycetous fungus” (J Nat Prod, 2010).
Converted amounts (≈) assume the structure as drawn.

test system: SW-620; experiment: Cytotoxicity against human SW620 cells by MTT assay; type: functional, cell-based

SMILES	IC50
CC1(C)CCC(=O)[C@@]2(C)OO[C@@H]3C[C@@]12CC[C@H]3O [MERULIN A]	4.84 µg/mL (≈ 19 µM)
CC1(C)CCC(=O)[C@H]2OO[C@@H]3C[C@]21CC[C@@]3(O)CO [MERULINS B]	> 10 µg/mL
CC1(C)CCC(=O)[C@H]2OO[C@@H]3C[C@@]21CC[C@]3(O)CO [MERULINS C]	4.11 µg/mL (≈ 15.2 µM)

test system: BT-474; experiment: Cytotoxicity against human BT474 cells by MTT assay; type: functional, cell-based

SMILES	IC50
CC1(C)CCC(=O)[C@@]2(C)OO[C@@H]3C[C@@]12CC[C@H]3O [MERULIN A]	4.98 µg/mL (≈ 19.6 µM)
CC1(C)CCC(=O)[C@H]2OO[C@@H]3C[C@]21CC[C@@]3(O)CO [MERULINS B]	> 10 µg/mL
CC1(C)CCC(=O)[C@H]2OO[C@@H]3C[C@@]21CC[C@]3(O)CO [MERULINS C]	1.57 µg/mL (≈ 5.81 µM)
